The values below come from patent publication US6204289A, “Cembranoid inhibitors of nicotinic acetylcholine receptors” (priority 1998, dated 2001).

The test has as its system peripheral and neuronal AchRs. As to the kind of experiment: Inhibition of peripheral and neuronal AchRs (summary statement). How it is done: Cembranoids are cyclic diterpenoids naturally present in many plants and invertebrate animals. We discovered that cembranoids inhibit both peripheral and neuronal AchRs at concentrations ranging from 10^-15 molar to 10^-4 molar; cembranoids also increase the rate of receptor desensitization. Seventeen different cembranoid analogs were tested. There are two main differences between previously known AchR inhibitors and these new cembranoid inhibitors. […] Second, cembranoids are present in tobacco leaves, and therefore potentially have an effect on nicotine action in the brains of cigarette smokers. Nicotine-induced desensitization of neuronal acetylcholine receptors is related to behavioral tolerance or addiction to nicotine (6); since cembranoids increase receptor desensitization, they are likely to increase tobacco addictive properties. Thus, by extracting the cembranoids from tobacco, this could produce less addictive cigarettes (or any tobacco related product). On the other hand, addition of cembranoids to tobacco could possibly increase its addictive properties. In addition, cembranoids displace general anesthetics from the muscle-type AchR, and so they could ameliorate the undesirable side-effects of anesthesia in patients with Myasthenia gravis.
We discovered that cembranoids isolated from gorgonian-corals inhibit both peripheral and neuronal AchRs.

Take `C=C(C(=O)O)C1CC/C(C)=C/CC/C(C)=C/CCC2(C)OC2C1` (centres unmarked) [pseudoplexauric acid]: the “potency relative to any previously known AchR inhibitors (factor)” value is “at least 1000”.
As for eupalmerin acetate, the entry is “at least 1000”.
